Assay results taken from patent publication US11104926B1, “Pro-fluorophore compounds and use thereof” (Vanderbilt University, priority 2018, dated 2021).
“Also recorded” adds a separate entry of the source.

Columns and labels:
[1] = system: porcine liver esterase (PLE); assay: In vitro activation of rhodamine-amide pro-fluorophores by PLE (kinetic fluorescence plate assay); format: biochemical; details: for conversion to the fluorescent Rhodamine 110 by PLE (in words): 10 μM, 2 min, 22° C., 30 nM PLE (FIG. 2B); for Km: Table 1, PLE activation; for quality as PLE substrate (in words): in vitro and in cells, comparison within the library
Experimental: To investigate the ability of PLE to activate various rhodamine-amide pro-fluorophores, the compounds were dissolved in DMSO to a concentration of 100 mM and serially diluted in DMSO in 10, 3-fold steps. The compounds were then added to the well of a low volume, cyclic olefin copolymer 384-well plate (Labcyte). Forty nL/well of pro-fluorophore solution were transferred to black-walled, clear-bottom, polystyrene 384-well plates (Greiner) using an Echo plate reformatter (Labcyte). Following compound transfer, […] of phosphate-buffered saline (PBS) was added to each well and thoroughly mixed. PLE (Sigma, 46058) dissolved in PBS at a concentration of 60 nM and 40 μL of this solution was added to the wells of a polypropylene 384-well plate (Greiner). Pro-fluorophore-containing and PLE-containing plates were placed in a Panoptic kinetic imaging plate reader (WaveFront Biosciences). Images were acquired at 1 Hz (excitation 480±20 nm and 540±30 nm) for 30 seconds, then 20 μL/well of the PLE solutions were added to the pro-fluorophore-containing plates and imaging continued for an additional 15 minutes. In addition to the pro-fluorophore-containing plates, a plate containing PBS only was imaged as was a plate containing a concentration series of Rhodamine 110.

[2] = system: HEK293 cells stably expressing PLE; assay: Pro-fluorophore activation in PLE-expressing HEK293 cells (kinetic imaging plate reader); format: cell-based; details: for rank of fold increase in fluorescence in cells (in words) / Fold Increase in Fluorescence: 10 μM; for rank of fold increase in fluorescence in cells (in words): PLE-expressing vs wild-type HEK293 (Table 2); for Fold Increase in Fluorescence: PLE-expressing HEK293 divided by wild-type HEK293, 5 min after addition, mean (SEM) of 4 replicates
From the text: Cell-based assays. To construct a PLE-expressing HEK293 cell line, a PLE-IRES-mCherry construct was excised from the pCAG-PLE-IRES-mCherry (Addgene plasmid #45766) vector using Not1-HF and Xho1 (Tian et al., Proceedings of the National Academy of Sciences, 2012, 109, 4756-4761). The PLE-IRES-mCherry insert was then cloned into pcDNA3.1/Zeo vector (Thermo Fisher Scientific). The pcDNA3.1/Zeo PLE-IRES-mCherry vector was introduced to HEK293 (ATCC) using FuGENE HD (Promega). PLE-expressing cells were selected for using Zeocin.
(§1) Wild-type HEK293 and PLE-expressing HEK293 cells maintained in α-MEM (Corning) containing 10% vol/vol fetal bovine serum (Thermo-Fisher Scientific) and 1% vol/vol GlutaGro (Corning) (cell culture medium) were seeded with 20,000 cells/well in 20 μL of cell culture medium into amine-coated, clear-bottom, and black-walled 384-well plate (BD Biosciences). Plates were then incubated overnight at 37° C. in a 5% CO2 cell culture incubator. Following overnight incubation, cell culture medium was removed and replaced with 20 μL/well assay buffer. Rhodamine-amide profluorophores dissolved in DMSO at 10 mM were diluted into assay buffer at concentrations ranging from 50 μM-70 nM. Forty μL/well of pro-fluorophore solutions were placed in polypropylene 384-well plates (Greiner). Immediately before the beginning of data acquisition, the assay buffer was removed from the cell-containing plates. The cell-containing and pro-fluorophore containing plates where then immediately loaded into a Panoptic kinetic imaging plate reader. Images were acquired at 1 Hz (excitation 480±20 nm and 540±30 nm) for 30 seconds, then 20 μL/well of the pro-fluorophore solutions were added to the cell-containing plates and imaging continued for an additional 15 minutes.

wild-type HEK293 cells [3] = assay: Pro-fluorophore activation in wild-type HEK293 cells (kinetic imaging plate reader); format: cell-based; details: 3 μM (FIG. 3A)
Experimental: as §1

[4] = system: HEK293 cells expressing PLE; assay: Confocal fluorescence microscopy of PLE-expressing HEK293 cells; format: cell-based; details: treated 1 h at 22° C. (FIG. 4 panels a-c)
Experimental: (§2) Microscopy. Confocal images were acquired using a Nikon MR (Nikon Instruments) laser scanning confocal microscope equipped with plan apochromat violet corrected 1.4 numerical aperture (N.A.) oil immersion lens. Hoescht images were obtained using a 405 nm laser and 425-475 nm emission filter. Pro-fluorophore (1c) was imaged using a 488 nm laser and 500-550 nm emission filter. Cells for imaging study were cultured overnight on no. 1 chambered slides (lab-tek II, ThermoFisher) in medium previously described in kinetic imaging assays. Medium was removed and pro-fluorophore was added to the slide chambers in assay buffer containing Hoescht, 1 μg/mL. […]

wild-type HEK293 cells [5] = assay: Confocal fluorescence microscopy of wild-type HEK293 cells; format: cell-based; details: treated 1 h at 22° C. (FIG. 4 panels d-f)
Experimental: as §2

[6] = listed as N,N′-dipropionyl rhodamine

## O=C1OC2(c3ccc(NC(=O)C(F)(F)F)cc3Oc3cc(NC(=O)C(F)(F)F)ccc32)c2ccccc21 [Compound 1a, N,N′ bis-triflouroacetyl rhodamine]
[1]
  conversion to the fluorescent Rhodamine 110 by PLE (in words): most effective conversion
  Km: 2.06 µM
  quality as PLE substrate (in words): good PLE substrates
[1]; listed as N,N′-ditrifluoroacetyl
  quality as PLE substrate (in words): better substrates than the others
[2]
  rank of fold increase in fluorescence in cells (in words): largest fold increase in fluorescence
  Fold Increase in Fluorescence: 5701 (±26.4)
[2]; listed as N,N′-ditrifluoroacetyl rhodamine
  rank of fold increase in fluorescence in cells (in words): largest increase in fluorescence

## CC(=O)Nc1ccc2c(c1)Oc1cc(NC(C)=O)ccc1C21OC(=O)c2ccccc21 [Compound 1b, N,N′-bis-acetyl rhodamine]
[1]
  quality as PLE substrate (in words): less preferred substrate; also recorded: poor substrate
[2]
  Fold Increase in Fluorescence: 37 (±0.2)

## CCC(=O)Nc1ccc2c(c1)Oc1cc(NC(=O)CC)ccc1C21OC(=O)c2ccccc21 [Compound 1c, N,N′-bis-propionyl rhodamine]
[1]
  conversion to the fluorescent Rhodamine 110 by PLE (in words): most effective conversion
  quality as PLE substrate (in words): good PLE substrates
[1]; [6]
  quality as PLE substrate (in words): better substrates than the others
[2]; 3 μM, 384-well plate (FIG. 3A)
  fluorescence upon addition to PLE-expressing HEK293 cells (in words): rapid increase in fluorescence
[2]
  rank of fold increase in fluorescence in cells (in words): largest fold increase in fluorescence
  Fold Increase in Fluorescence: 725 (±2.1)
wild-type HEK293 cells [3]
  fluorescence upon addition to wild-type HEK293 cells (in words): no increase in fluorescence was observed
[4]
  confocal fluorescence in PLE-expressing HEK293 cells (in words): bright, predominantly cytoplasmic, fluorescence
[4]; [6]
  confocal fluorescence in PLE-expressing HEK293 cells (in words): bright, cytoplasmic fluorescence
wild-type HEK293 cells [5]
  confocal fluorescence in wild-type HEK293 cells (in words): no fluorescence was observed

## CC(C)C(=O)Nc1ccc2c(c1)Oc1cc(NC(=O)C(C)C)ccc1C21OC(=O)c2ccccc21 [Compound 1d, N,N′-bis-isobutyl rhodamine]
[2]
  Fold Increase in Fluorescence: 458 (±1.6)

## CC(C)(C)C(=O)Nc1ccc2c(c1)Oc1cc(NC(=O)C(C)(C)C)ccc1C21OC(=O)c2ccccc21 [Compound 1e, N,N′-bis-pivaloyl rhodamine]
[2]
  Fold Increase in Fluorescence: 87 (±0.4)

## O=C(Nc1ccc2c(c1)Oc1cc(NC(=O)c3ccccc3)ccc1C21OC(=O)c2ccccc21)c1ccccc1 [Compound 1f, N,N′-bis-benzoyl rhodamine]
[1]
  Km: 7.45 µM
[2]
  Fold Increase in Fluorescence: 119 (±1.2)
